One block for each molecule: values may come before it.
Tests used:
[1] = test system: arterial thrombosis in a mouse model; assay: Arterial thrombosis in a mouse model (FeCl3, femoral artery); type: in vivo; conditions: mice
Protocol: The solutions are diluted 3.3-fold in saline and 100 μl/25 g is injected. Thus, the above-mentioned doses of 100 and 300 mg/kg of compound correspond to final doses of 30 and 100 mg/kg.
During the experiments, a soluble salt of the drug is provided (e.g., potassium salt of compound C), diluted in saline. Of this formulation, 100 μl/25 g is injected i.v. in the tail vein (dose of 100 mg/kg).
Solutions are injected (100 μl/25 g body weight) i.v. in the tail vein over 2 min to obtain doses of each compound of 30 mg/kg and 100 mg/kg. Aspirin is given the same way at a dose of 200 mg/kg. Clopidogrel is administered by oral gavage at a dose of 20 mg/kg at 6-7 hours prior to the experiment. The animals assigned to each group are matched for body weight. Mice are typically 8-10 weeks old males and are in a 100% Swiss genetic background.
The flow in each image is expressed as a percentage of that at the contralateral side, and data are averaged for all 120 images to determine total flow. The same analysis is performed for 10 min intervals (which gives essentially the same information as the area under the curve). […] Flow before treatment is recorded as 100%, and that in occluded arteries as 0%. At the end of the experiment, blood is collected on 0.01M citrate buffer by heart puncture for determination of blood cell counts. Plasma is prepared by centrifugation and stored at −20° C. for determination of drug levels.
Statistical analysis for differences between two groups is performed by non-parametric Student t-test. Occlusion times >30 min were considered equal to 30 min for statistical analysis. Significance is set at p<0.05.

[2] = target: T1, Thromboxane receptor (TP) (Homo sapiens, UniProt P21731); assay: TP receptor radioligand binding; conditions: Human recombinant HEK-293 cells
T1 construct: expressed in transfected cells; host or cells: HEK-293 cells
T1 sequence (P21731 1-343): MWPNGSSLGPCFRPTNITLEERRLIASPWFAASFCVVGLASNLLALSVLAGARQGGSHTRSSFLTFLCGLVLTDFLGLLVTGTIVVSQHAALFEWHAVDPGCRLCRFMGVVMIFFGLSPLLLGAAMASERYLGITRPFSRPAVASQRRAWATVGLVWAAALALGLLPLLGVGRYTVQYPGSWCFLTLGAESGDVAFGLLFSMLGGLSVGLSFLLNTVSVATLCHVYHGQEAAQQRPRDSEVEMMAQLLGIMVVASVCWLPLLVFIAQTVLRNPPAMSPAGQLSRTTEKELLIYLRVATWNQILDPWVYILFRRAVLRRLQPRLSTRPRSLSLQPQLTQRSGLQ
Protocol: The compounds were tested on radioligand binding assays for thromboxane receptor binding essentially as described by Hedberg et al. (1988) J. Pharmacol. Exp. Ther. 245:786-792 and Saussy et al. (1986) J. Biol. Chem. 261: 3025-3029 according to the following:
TP Receptor Radioligand Binding Studies:
Human recombinant HEK-293 cells,
Incubation Time, Temp: 30 minutes at 25° C.
Incubation Buffer: 50 mM Tris-HCl, pH 7.4, 154 mM NaCl
Non-Specific Ligand: 1 μM SQ-29548
The data were transformed to semi-log and then analysed using non-linear regression to a four-parameter dose-response curve Y=Bottom+(Top−Bottom)/(1+10̂((LogEC50−X)*HillSlope)) using the log(agonist) vs. response—Variable slope function of GraphPad Prism software (http://graphpad.com/help/prism5/prism5help.html?usingnonlinear_regression_step_by_s.htm).

[3] = target: T2, Thromboxane synthase (Homo sapiens, UniProt P24557); assay: Human platelet thromboxane synthase assay; type: biochemical
T2 construct: Human Platelet Thromboxane Synthase Assay; from tissue; host or cells: human platelets
T2 sequence (P24557 1-533): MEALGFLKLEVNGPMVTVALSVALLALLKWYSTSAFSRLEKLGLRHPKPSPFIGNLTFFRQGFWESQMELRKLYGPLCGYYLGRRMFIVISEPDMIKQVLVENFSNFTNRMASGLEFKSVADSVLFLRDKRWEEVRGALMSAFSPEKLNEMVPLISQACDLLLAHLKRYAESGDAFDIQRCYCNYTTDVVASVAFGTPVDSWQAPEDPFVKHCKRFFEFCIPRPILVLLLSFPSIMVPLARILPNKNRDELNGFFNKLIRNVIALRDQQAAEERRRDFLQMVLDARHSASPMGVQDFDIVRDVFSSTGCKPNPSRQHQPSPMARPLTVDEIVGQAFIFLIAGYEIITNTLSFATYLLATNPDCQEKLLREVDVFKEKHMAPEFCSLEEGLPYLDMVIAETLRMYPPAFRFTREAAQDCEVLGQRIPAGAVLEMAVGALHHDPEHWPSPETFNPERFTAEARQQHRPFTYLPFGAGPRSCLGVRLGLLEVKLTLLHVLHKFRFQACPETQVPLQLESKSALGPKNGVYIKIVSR
Protocol: The compounds were tested for thromboxane synthase inhibition essentially as described by Borsch-Haubold A G, Pasquet S, Watson S P. (1998). Direct inhibition of cyclooxygenase-1 and -2 by the kinase inhibitors SB 203580 and PD 98059. […] 1. Imidazole derivatives. J Med. Chem. (10):1139-48 according to the following:
Pre-incubation time, temp: 15 minutes at 25° C. Incubation time, temp: 3 minutes at 25° C.
Incubation Buffer: 10 mM Tris-HCl, pH 7.4
Quantification Method: ETA quantification of TxB2

[4] = test system: KKA^y mice; assay: In vivo effect on serum glucose and other parameters in KKA^y mice
Protocol: 52 male KKA^y mice are obtained commercially (e.g., from Clea Japan) at an age of 6 weeks and put on a high fat diet upon arrival. Individual mice were housed in IVC Type II cages during both the acclimatization and the experimental phase. Both food (high fat diet) and water are supplied ad libitum.
1 animal per cage. […] Lights on at 06:00 a.m. Temperature: 21-25° C. Relative humidity target range: 55-60%.
Mice were randomized into treatment groups according to their 4-h fasting blood glucose.
4 hours after the last administration, non-fasting conditions.
Gamma irradiated high fat diet is commercially available (e.g., Research Diets, Inc. New Brunswick, N.J. (Product # D12266BI)).
Blood is collected into heparin containing glass capillaries which are subsequently centrifuged in a “Haematokrit 24” centrifuge (Hettich) at 15′200×g for 10 minutes at room temperature to obtain the hematocrit value.
The following serum parameters are determined on a COBAS INTEGRA 800 auto analyzer (Roche Diagnostics, Switzerland) using the reagents and protocols provided by the supplier.
All measurements are made on Day 14 of administration, except for the food intake and body weight measurements that are made on Day 12.

[5] = test system: U-46619-induced platelet aggregation; assay: TP receptor platelet aggregation, rabbit; type: cell-based, New Zealand Rabbit
Protocol: Thrombosis Research 33:277-288.
TP Receptor Platelet Aggregation—Rabbit:
New Zealand Rabbit (2.75±0.25 kg) platelet rich plasma
Assay: Inhibition of 1.5 μM U-46619-induced platelet aggregation Incubation Time, Temp: 5 minutes at 37° C. Incubation Buffer Trisodium Citrate (0.13 M)-treated platelet rich plasma
Time of Assessment: 5 minutes
Quantification Method Optical Density Change

[6] = 53 mg/kg BID oral gavage 14 days, high fat diet, Day 14
[7] = 14-day oral gavage BID, dose not given

IC50 ([2]; 5 nM [3H] SQ-29548): 88.9 nM
Ki ([2]; 5 nM [3H] SQ-29548): 58 nM
inhibition at 1 µM ([2]; at 1 μM, 5 nM [3H] SQ-29548): 99%
IC50 [3]: 365 nM
inhibition at 1 µM ([3]; at 1 μM): 67%
Structure (SMILES): O=C(O)CC/C=C\C[C@@H]1CO[C@H](c2coc3ccc(Cl)cc3c2=O)O[C@@H]1c1ccccc1O (single isomer, unassigned) [Compound 3-1]
Binding to the TP receptor (comparison of enantiomers) [2]: binds with higher affinity than enantiomer 3-2

IC50 ([2]; 5 nM [3H] SQ-29548): 1680 nM
Ki ([2]; 5 nM [3H] SQ-29548): 1100 nM
inhibition at 10 µM ([2]; 5 nM [3H] SQ-29548): 93%
IC50 [3]: > 100000 nM
inhibition at 100 µM ([3]; at 100 μM): 37%
Structure (SMILES): O=C(O)CC/C=C\C[C@H]1CO[C@@H](c2coc3ccc(Cl)cc3c2=O)O[C@H]1c1ccccc1O (single isomer, unassigned) [Compound 3-2]

Heart weight [4, 6]: has no effect on heart weight
Structure (SMILES): O=C(O)CC/C=C\C[C@@H]1CO[C@H](c2ccccc2Cl)O[C@@H]1c1ccccc1O [Compound C, (Z)-6-((2S,4S,5R)-2-(2-chlorophenyl)-4-(2-hydroxyphenyl)-1,3-dioxan-5-yl)hex-4-enoic acid, reference compound]
Occlusion time ([1]; 30 mg/kg in vehicle i.v.): slightly prolongs the occlusion time as compared to aspirin (p=0.024), but has no effect as compared to vehicle
Total blood flow ([1]; 30 mg/kg in vehicle i.v.): has no effect on total blood flow
FFA [4, 6]: decreases the FFA
HbA1C [4, 6]: decreased
Serum Glucose [4, 6]: decreased
Body weight ([4]; 53 mg/kg BID oral gavage, high fat diet, Day 12): do not alter body weight

inhibition at 10 µM ([2]; 5 nM [3H] SQ-29548): 85%
inhibition at 30 µM ([3]; at 30 μM): 52%
Structure (SMILES): COc1ccccc1[C@@H]1O[C@H](c2ccccc2Cl)OC[C@@H]1C/C=C\CCC(=O)O [Compound E, (Z)-6-((2R,4R,5S)-2-(2-chlorophenyl)-4-(2-methoxyphenyl)-1,3-dioxan-5-yl)hex-4-enoic acid, reference compound]

More lines, now with the values behind:

Structure (SMILES): CC(=O)Oc1ccccc1C(=O)O [Aspirin]
Occlusion time ([1]; 200 mg/kg i.v.): has no effect on the occlusion time
Total blood flow ([1]; 200 mg/kg i.v.): has no significant effect on the total blood flow

Structure (SMILES): COC(=O)[C@H](c1ccccc1Cl)N1CCc2sccc2C1 [Clopidogrel]
Total blood flow ([1]; 20 mg/kg oral gavage 6-7 hours prior): significantly improved total blood flow

Structure (SMILES): COc1ccccc1[C@@H]1O[C@H](c2ccccc2Cl)OC[C@@H]1C/C=C\CCC(=O)O [Compound F, (Z)-6-((2R,4R,5S)-2-(2-chlorophenyl)-4-(2-methoxyphenyl)-1,3-dioxan-5-yl)hex-4-enoic acid, reference compound]
IC50 ([2]; 5 nM [3H] SQ-29548): 23.4 nM
Ki ([2]; 5 nM [3H] SQ-29548): 15.3 nM
inhibition at 0.3 µM ([2]; at 0.3 μM, 5 nM [3H] SQ-29548): 96%
IC50 [3]: 20400 nM
Thromboxane synthase Human platelet Inhibition (%) ([3]; at 30 μM): 62 @ 30 μM %

Structure (SMILES): CN(CCOc1ccc(CC2SC(=O)NC2=O)cc1)c1ccccn1 (stereo not shown) [Rosiglitazone, reference compound]
Heart weight ([4]; 5 mg/kg BID oral gavage 14 days, high fat diet, Day 14): 226.2 ± 6.9 mg
Heart weight ([4]; 5 mg/kg BID oral gavage 14 days, high fat diet, Day 14, listed as rosiglitazone): increased

Structure (SMILES): Cc1ccc2nc(Cl)c([C@H]3OC[C@@H](C/C=C\CCC(=O)O)[C@@H](c4ccccc4O)O3)cc2c1 (racemic) [Compound 13, (Z)-6-(2-(2-Chloro-6-methyl-quinolin-3-yl)-4-(2-hydroxyphenyl)-1,3-dioxan-5-yl)hex-4-enoic acid]
Inhibition of thromboxane synthase (in words) [3]: potent inhibitors of thromboxane synthase
inhibition at 5 µM ([3]; at 5 μM): 85%
Inhibition of platelet aggregation (in words) [5]: potent inhibitors of platelet aggregation
inhibition at 10 µM ([5]; Oryctolagus cuniculus, at 10 μM, 1.5 μM U-46619, platelet rich plasma): 100%
Occlusion time ([1]; dose not given): prolongs the occlusion time
Total blood flow ([1]; dose not given): improves total blood flow
FFA [4, 7]: decreases the FFA
HbA1c levels [4, 7]: decreased
Heart weight [4, 7]: has no effect on heart weight
Body weight ([4]; oral gavage BID, dose not given): do not alter body weight
